The record followed here is patent US20240245051A1, “DISINFECTING, ANTIMICROBIAL AND PRESERVATIVE COMPOSITION” (BJBIOCHEM CO., LTD., priority 2021, published 2024).

What all share (test): Antimicrobial test, broth dilution method (MIC)
Common to all, as to type: cell-based
Holding throughout (conditions): single compounds of Comparative Examples
A general note: Broth dilution looks for growth in wells or tubes with falling amounts of substance.

In one assay the test system is A. niger. How it is done: (§1) The antimicrobial activity of the test solution was measured using a broth dilution method. The concentration of the test solution that was treated was diluted from the highest concentration of 5% to the lowest concentration of 0.0001%. The test solution was cultured in the presence of the strain and then the turbidity of the tube was determined. […] After the primary test described as above, the concentration of the test solution that was treated was further subdivided and a secondary test was conducted to obtain an accurate minimum inhibitory concentration (MIC).
(§2) Test strains E. coli, S. aureus, and P. aeruginosa were inoculated into tryptic soy broth and incubated at 35±2° C. for 16 to 24 hours. C. albicans was inoculated into Sabouraud dextrose broth and cultured at 35° C. for 24 hours. A. niger was seeded on potato dextrose agar and cultured at (25±1°) C for 7 days, sterile physiological saline was dispensed into a solid medium on which the bacteria grew, and spores were removed using a spreader and then diluted in sterile physiological saline.
(§3) A liquid medium was put into the tube and the concentration of the test solution that was treated was diluted from the highest concentration of 5% to the lowest concentration of 0.0001%. The liquid media used for E. coli, S. aureus, and P. aeruginosa (bacteria) were tryptic soy broth, and the liquid media used for C. albicans, and A. niger (fungi) were Sabouraud dextrose broth.
(§4) E. coli, S. aureus, and P. aeruginosa of the strains were inoculated at a concentration of 1×10^5 CFU/mL in the test tube. The tubes treated with the test solution were incubated at 35±2° C. for 16 to 24 hours. C. albicans and A. niger were inoculated at a concentration of 1×10^4 CFU/mL in the test tube. After treatment with the test solution was completed, C. albicans was cultured at 35° C. for 24 to 48 hours and A. niger was cultured at 25° C. for 46 to 50 hours. A medium tube, to which the bacterial solution was not added, was used as a negative control, and a tube containing the medium inoculated with only the bacterial solution without the test solution was used as a growth control. In addition, in order to determine the antimicrobial activity of dipropylene glycol itself used as a solvent, the MIC of the test bacteria for the solvent was measured under the same conditions as in the sample.

For a further assay, the system named is E. coli. How it is done:
as §1, §2, §3, §4

For a further assay, the system named is P. aeruginosa. How it is done: as §1, §2, §3, §4
In another assay the test system is C. albicans. On the procedure:
as §1, §2, §3, §4

The subject of a further assay is S. aureus. How it is done:
as §1, §2, §3, §4

Regarding `CCCCCCCCOCC(O)CO` (stereo not drawn) [Comparative Example 6, Octyl glycerin], the “minimum inhibitory concentration (MIC), A. niger” value in the assay on A. niger turned out to be 0.5%. The “minimum inhibitory concentration (MIC), E. coli” value in the assay on E. coli is reported as 0.5%. The “minimum inhibitory concentration (MIC), P. Aeruginosa” value with P. aeruginosa is on record as 0.5%. Besides, in the assay with C. albicans, the “minimum inhibitory concentration (MIC), C. albicans” value is 0.25%. The “minimum inhibitory concentration (MIC), S. Aureus” value in the assay with S. aureus is reported as 0.5%.
Take `OCCOc1ccccc1` [Comparative Example 15, Phenoxy EtOH]: the “minimum inhibitory concentration (MIC), A. niger” value with A. niger worked out at 0.12%. In the assay on E. coli, the “minimum inhibitory concentration (MIC), E. coli” value was found to be 0.06%. Also, in the assay on P. aeruginosa, the “minimum inhibitory concentration (MIC), P. Aeruginosa” value was determined as 0.09%. For the same molecule, the “minimum inhibitory concentration (MIC), C. albicans” value in the assay with C. albicans turned out to be 0.12%. Further, in the assay with S. aureus, the “minimum inhibitory concentration (MIC), S. Aureus” value was determined as 0.06%.
`O=C/C=C/c1ccccc1` [Comparative Example 9, Cinnamaldehyde]: the “minimum inhibitory concentration (MIC), A. niger” value in the assay with A. niger was 0.03%. Also, the “minimum inhibitory concentration (MIC), E. coli” value with E. coli was 0.05%. Also, the “minimum inhibitory concentration (MIC), P. Aeruginosa” value in the assay on P. aeruginosa is listed as 0.1%. In addition, the “minimum inhibitory concentration (MIC), C. albicans” value in the assay on C. albicans worked out at 0.02%. The “minimum inhibitory concentration (MIC), S. Aureus” value in the assay with S. aureus is listed as 0.03%.
Turning to `CC(=O)c1ccc(O)cc1` [Comparative Example 13, 4-hydroxy acetophenone], the “minimum inhibitory concentration (MIC), A. niger” value with A. niger amounted to 0.5%. In addition, in the assay on E. coli, the “minimum inhibitory concentration (MIC), E. coli” value came out at 0.15%. Besides, in the assay on P. aeruginosa, the “minimum inhibitory concentration (MIC), P. Aeruginosa” value is on record as 0.1%. Also, the “minimum inhibitory concentration (MIC), C. albicans” value with C. albicans was 0.1%. Also, in the assay on S. aureus, the “minimum inhibitory concentration (MIC), S. Aureus” value is recorded as 0.2%.
As to `CCCCCCCC(=O)NO` [Comparative Example 17, Caprylhydroxamic acid], in the assay with A. niger, the “minimum inhibitory concentration (MIC), A. niger” value is on record as 0.02%. The “minimum inhibitory concentration (MIC), E. coli” value with E. coli was 0.06%. In the assay with P. aeruginosa, the “minimum inhibitory concentration (MIC), P. Aeruginosa” value came out at 0.12%. For the same molecule, in the assay with C. albicans, the “minimum inhibitory concentration (MIC), C. albicans” value amounted to 0.03%. Further, the “minimum inhibitory concentration (MIC), S. Aureus” value in the assay on S. aureus worked out at 0.06%.
Turning to `CCCCC(CC)COCC(O)CO` (stereo not drawn) [Comparative Example 7, Ethylhexylglycerin], the “minimum inhibitory concentration (MIC), A. niger” value with A. niger turned out to be 0.5%. Further, the “minimum inhibitory concentration (MIC), E. coli” value in the assay with E. coli came out at 0.3%. In the assay on P. aeruginosa, the “minimum inhibitory concentration (MIC), P. Aeruginosa” value stood at 2%. In the assay on C. albicans, the “minimum inhibitory concentration (MIC), C. albicans” value worked out at 0.5%. For the same molecule, in the assay on S. aureus, the “minimum inhibitory concentration (MIC), S. Aureus” value is 0.15%.
On to Disodium EDTA [Comparative Example 23], for which the “minimum inhibitory concentration (MIC), A. niger” value in the assay on A. niger turned out to be 0.15%. For the same molecule, in the assay on E. coli, the “minimum inhibitory concentration (MIC), E. coli” value is 0.1%. In the assay on P. aeruginosa, the “minimum inhibitory concentration (MIC), P. Aeruginosa” value came to 0.15%. Moreover, in the assay on C. albicans, the “minimum inhibitory concentration (MIC), C. albicans” value is given as 0.05%. Also, the “minimum inhibitory concentration (MIC), S. Aureus” value with S. aureus amounted to 0.1%.
For the molecule `O=C([O-])CN(CCN(CC(=O)[O-])CC(=O)[O-])CC(=O)[O-].[Na+].[Na+].[Na+].[Na+]` [Comparative Example 24, Tetrasodium EDTA], the “minimum inhibitory concentration (MIC), A. niger” value with A. niger came to 0.15%. Also, the “minimum inhibitory concentration (MIC), E. coli” value in the assay with E. coli is on record as 0.1%. Moreover, the “minimum inhibitory concentration (MIC), P. Aeruginosa” value with P. aeruginosa was 0.15%. Besides, in the assay on C. albicans, the “minimum inhibitory concentration (MIC), C. albicans” value came out at 0.05%. Further, in the assay on S. aureus, the “minimum inhibitory concentration (MIC), S. Aureus” value is on record as 0.1%.
In the case of `CCCCC(O)CO` (stereo not drawn) [Comparative Example 2, Hexane-1,2-diol], the “minimum inhibitory concentration (MIC), A. niger” value with A. niger was 0.5%. Also, the “minimum inhibitory concentration (MIC), E. coli” value with E. coli was 1%. The “minimum inhibitory concentration (MIC), P. Aeruginosa” value in the assay with P. aeruginosa was determined as 1%. In addition, in the assay with C. albicans, the “minimum inhibitory concentration (MIC), C. albicans” value is reported as 2%. Besides, the “minimum inhibitory concentration (MIC), S. Aureus” value in the assay on S. aureus was 2%.
For the molecule `COc1ccc(C(=O)O)cc1` [Comparative Example 22, Sodium anisate], the “minimum inhibitory concentration (MIC), A. niger” value in the assay on A. niger came to 0.1%. In the assay on E. coli, the “minimum inhibitory concentration (MIC), E. coli” value is 0.05%. In addition, the “minimum inhibitory concentration (MIC), P. Aeruginosa” value in the assay with P. aeruginosa was determined as 0.05%. Moreover, in the assay on C. albicans, the “minimum inhibitory concentration (MIC), C. albicans” value is on record as 0.1%. Besides, in the assay on S. aureus, the “minimum inhibitory concentration (MIC), S. Aureus” value was determined as 0.01%.
`OCCCc1ccccc1` [Comparative Example 12, 3-phenyl-1-propanol]: the “minimum inhibitory concentration (MIC), A. niger” value in the assay with A. niger is 0.03%. Also, the “minimum inhibitory concentration (MIC), E. coli” value in the assay on E. coli stood at 0.4%. Also, in the assay on P. aeruginosa, the “minimum inhibitory concentration (MIC), P. Aeruginosa” value amounted to 0.2%. Also, in the assay with C. albicans, the “minimum inhibitory concentration (MIC), C. albicans” value came to 0.03%. Besides, in the assay with S. aureus, the “minimum inhibitory concentration (MIC), S. Aureus” value was found to be 0.4%.
`O=C([O-])c1ccccc1.[Na+]` [Comparative Example 14, Sodium benzoate]: the “minimum inhibitory concentration (MIC), A. niger” value in the assay on A. niger is on record as 0.1%. Further, the “minimum inhibitory concentration (MIC), E. coli” value in the assay on E. coli is 0.016%. The “minimum inhibitory concentration (MIC), P. Aeruginosa” value with P. aeruginosa amounted to 0.016%. For the same molecule, the “minimum inhibitory concentration (MIC), C. albicans” value in the assay on C. albicans was determined as 0.12%. Further, the “minimum inhibitory concentration (MIC), S. Aureus” value with S. aureus came out at 0.002%.
For `CCCCCCC(O)CO` (stereo not drawn) [Comparative Example 3, Octane-1,2-diol], in the assay on A. niger, the “minimum inhibitory concentration (MIC), A. niger” value is recorded as 0.3%. In addition, the “minimum inhibitory concentration (MIC), E. coli” value in the assay on E. coli is 0.25%. The “minimum inhibitory concentration (MIC), P. Aeruginosa” value with P. aeruginosa is 0.5%. Further, the “minimum inhibitory concentration (MIC), C. albicans” value in the assay with C. albicans came out at 0.5%. Besides, in the assay with S. aureus, the “minimum inhibitory concentration (MIC), S. Aureus” value turned out to be 0.5%.
For `CC(=O)CCC(=O)O` [Comparative Example 20, Levulinic acid], the “minimum inhibitory concentration (MIC), A. niger” value with A. niger is reported as 0.15%. Besides, the “minimum inhibitory concentration (MIC), E. coli” value in the assay on E. coli came out at 0.02%. Moreover, the “minimum inhibitory concentration (MIC), P. Aeruginosa” value in the assay on P. aeruginosa came to 0.1%. For the same molecule, in the assay with C. albicans, the “minimum inhibitory concentration (MIC), C. albicans” value worked out at 0.1%. Moreover, the “minimum inhibitory concentration (MIC), S. Aureus” value with S. aureus is 0.02%.
With `CCCCCCCCCCCC(=O)NC(CCCN=C(N)N)C(=O)OCC` (stereo not drawn) [Comparative Example 19, Lauroyl arginine ethyl ester], in the assay on A. niger, the “minimum inhibitory concentration (MIC), A. niger” value is 0.003%. Besides, in the assay on E. coli, the “minimum inhibitory concentration (MIC), E. coli” value was 0.003%. In the assay on P. aeruginosa, the “minimum inhibitory concentration (MIC), P. Aeruginosa” value worked out at 0.003%. Also, the “minimum inhibitory concentration (MIC), C. albicans” value in the assay with C. albicans is listed as 0.001%. In the assay with S. aureus, the “minimum inhibitory concentration (MIC), S. Aureus” value turned out to be 0.003%.
Consider `CCCCCCCCC(O)CO` (stereo not drawn) [Comparative Example 4, Decane-1,2-diol], for which the “minimum inhibitory concentration (MIC), A. niger” value in the assay with A. niger was determined as 0.006%. In addition, the “minimum inhibitory concentration (MIC), E. coli” value in the assay with E. coli stood at 0.09%. Further, in the assay on P. aeruginosa, the “minimum inhibitory concentration (MIC), P. Aeruginosa” value is recorded as 0.045%. In addition, the “minimum inhibitory concentration (MIC), C. albicans” value in the assay with C. albicans worked out at 0.011%. Further, the “minimum inhibitory concentration (MIC), S. Aureus” value in the assay with S. aureus was 0.025%.
For `COc1ccccc1/C=C/C=O` [Comparative Example 10, 2-methoxycinnamaldehyde], in that order: 0.005%, 0.02%, 0.4%, 0.005% and 0.02%.
With Citric acid [Comparative Example 21], the “minimum inhibitory concentration (MIC), A. niger” value in the assay on A. niger is recorded as 0.2%. Also, the “minimum inhibitory concentration (MIC), E. coli” value in the assay on E. coli was 0.1%. In addition, the “minimum inhibitory concentration (MIC), P. Aeruginosa” value in the assay on P. aeruginosa amounted to 0.1%. Also, the “minimum inhibitory concentration (MIC), C. albicans” value with C. albicans was found to be 0.05%. For the same molecule, in the assay with S. aureus, the “minimum inhibitory concentration (MIC), S. Aureus” value was 0.1%.
